In US20250170248A1, “SMARCA DEGRADERS AND USES THEREOF” (Kymera Therapeutics, Inc., priority 2021, published 2025):

Experiments:
Assay type in all cases: cell-based
SMARCA2 [1] = target: T1, SMARCA2 (Homo sapiens, UniProt P51531); assay: MSD SMARCA2 degradation in A549 cell line; details: for SMARCA2 MSD A549 degradation 24 h: Average Dmax % / DC50: A549 cells; for DC50 / Dmax: 24 h; for DC50: read-out: SMARCA2 MSD A549 degradation 24 h: Average external-Abs DC50; for Dmax: A549, A549 cells
Method in brief: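 A549 cells treated 24 h with compound, 3-fold series from 1000 nM. Lysates captured on MSD plates and SMARCA2 quantified with anti-SMARCA2 and SULFO-TAG secondary antibodies (electrochemiluminescence). DC50 and Dmax (% degradation at 24 h) reported as letter bins.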

SMARCA2 [2] = target: T1, SMARCA2; assay: SMARCA2 Western blot degradation in MV4-11 cells; parameters: SMARCA2/SMARCA4 protein degradation selectivity in MV4-11 cells; endogenous in cells; host or cells: MV4-11; details: for SMARCA2 MSD MV411 degradation 24 h: average Dmax % / DC50 / Selectivity in MV411: MV4-11 cells; for SMARCA2 MSD MV411 degradation 24 h: average Dmax % / DC50 / Dmax: 24 h; for DC50: read-out: SMARCA2 MSD MV411 degradation 24 h: Mean external-Abs DC50; for Selectivity in MV411: SMARCA2/4 selectivity; for Dmax: MV4-11, MV4-11 cells, read-out: SMARCA2 MSD MV411 degradation 24 h: average Dmax %
SMARCA4 = target: T2, SMARCA4 (Homo sapiens, UniProt P51532); assay: SMARCA4 Western blot degradation in MV4-11 cells; details: for SMARCA4 MSD MV411 degradation 24 h: average Dmax % / DC50: MV4-11 cells; for DC50 / Dmax: 24 h; for DC50: read-out: SMARCA4 MSD MV411 degradation 24 h: Mean external-Abs DC50; for Dmax: MV4-11, MV4-11 cells, read-out: SMARCA4 MSD MV411 degradation 24 h: average Dmax %
T2 construct: SMARCA2/SMARCA4 protein degradation selectivity in MV4-11 cells; endogenous in cells; host or cells: MV4-11
T2 sequence (P51532 whole entry): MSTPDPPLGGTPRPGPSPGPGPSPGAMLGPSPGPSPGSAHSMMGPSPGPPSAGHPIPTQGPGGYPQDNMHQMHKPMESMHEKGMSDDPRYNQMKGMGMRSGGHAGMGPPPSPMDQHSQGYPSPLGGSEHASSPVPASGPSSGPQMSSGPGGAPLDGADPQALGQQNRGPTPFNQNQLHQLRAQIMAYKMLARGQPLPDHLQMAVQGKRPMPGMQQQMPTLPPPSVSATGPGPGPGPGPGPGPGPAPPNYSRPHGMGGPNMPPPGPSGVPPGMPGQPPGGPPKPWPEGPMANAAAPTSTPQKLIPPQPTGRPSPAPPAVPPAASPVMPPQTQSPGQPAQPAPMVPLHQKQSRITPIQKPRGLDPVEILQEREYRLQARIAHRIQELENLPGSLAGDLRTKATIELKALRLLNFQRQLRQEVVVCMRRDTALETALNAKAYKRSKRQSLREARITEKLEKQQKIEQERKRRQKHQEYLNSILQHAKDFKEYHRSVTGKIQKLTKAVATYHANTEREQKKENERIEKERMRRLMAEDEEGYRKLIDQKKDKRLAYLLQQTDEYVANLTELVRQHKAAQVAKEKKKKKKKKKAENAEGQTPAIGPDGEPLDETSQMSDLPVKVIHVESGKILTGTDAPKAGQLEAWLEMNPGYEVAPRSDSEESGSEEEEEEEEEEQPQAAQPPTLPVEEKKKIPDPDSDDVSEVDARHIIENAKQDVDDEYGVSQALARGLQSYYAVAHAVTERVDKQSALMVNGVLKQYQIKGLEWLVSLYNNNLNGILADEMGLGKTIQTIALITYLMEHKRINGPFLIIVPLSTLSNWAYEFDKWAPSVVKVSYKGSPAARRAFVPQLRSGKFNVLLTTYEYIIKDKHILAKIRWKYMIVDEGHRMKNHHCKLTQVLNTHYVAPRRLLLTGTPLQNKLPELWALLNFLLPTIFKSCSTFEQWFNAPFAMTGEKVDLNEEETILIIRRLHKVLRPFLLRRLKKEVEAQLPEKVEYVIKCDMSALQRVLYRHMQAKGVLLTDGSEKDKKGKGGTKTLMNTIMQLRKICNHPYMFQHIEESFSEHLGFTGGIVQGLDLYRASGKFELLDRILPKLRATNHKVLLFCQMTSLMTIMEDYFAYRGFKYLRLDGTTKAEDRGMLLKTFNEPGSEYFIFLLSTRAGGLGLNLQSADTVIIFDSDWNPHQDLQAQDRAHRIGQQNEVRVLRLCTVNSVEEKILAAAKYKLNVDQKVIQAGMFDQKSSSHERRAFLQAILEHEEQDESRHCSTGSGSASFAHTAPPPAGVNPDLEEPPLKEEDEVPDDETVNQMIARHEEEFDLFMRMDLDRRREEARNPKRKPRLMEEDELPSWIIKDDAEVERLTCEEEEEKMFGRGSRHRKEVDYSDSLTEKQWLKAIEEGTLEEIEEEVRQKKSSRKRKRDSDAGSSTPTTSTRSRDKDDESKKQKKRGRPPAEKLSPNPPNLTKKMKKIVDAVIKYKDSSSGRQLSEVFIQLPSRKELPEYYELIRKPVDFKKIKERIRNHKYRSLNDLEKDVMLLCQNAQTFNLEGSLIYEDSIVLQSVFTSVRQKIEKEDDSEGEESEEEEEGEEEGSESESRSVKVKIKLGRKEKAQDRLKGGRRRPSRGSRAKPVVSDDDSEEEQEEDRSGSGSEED
Method in brief: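 MV4-11 cells (4×10^6/well) treated with compound for 24 h, lysed in RIPA with protease/phosphatase inhibitors, and SMARCA2, SMARCA4 and beta-actin detected by Western blot with LI-COR readout. Values reported as letter-coded DC50, 24 h Dmax % and SMARCA2/4 selectivity fold.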

T1 sequence (P51531 whole entry): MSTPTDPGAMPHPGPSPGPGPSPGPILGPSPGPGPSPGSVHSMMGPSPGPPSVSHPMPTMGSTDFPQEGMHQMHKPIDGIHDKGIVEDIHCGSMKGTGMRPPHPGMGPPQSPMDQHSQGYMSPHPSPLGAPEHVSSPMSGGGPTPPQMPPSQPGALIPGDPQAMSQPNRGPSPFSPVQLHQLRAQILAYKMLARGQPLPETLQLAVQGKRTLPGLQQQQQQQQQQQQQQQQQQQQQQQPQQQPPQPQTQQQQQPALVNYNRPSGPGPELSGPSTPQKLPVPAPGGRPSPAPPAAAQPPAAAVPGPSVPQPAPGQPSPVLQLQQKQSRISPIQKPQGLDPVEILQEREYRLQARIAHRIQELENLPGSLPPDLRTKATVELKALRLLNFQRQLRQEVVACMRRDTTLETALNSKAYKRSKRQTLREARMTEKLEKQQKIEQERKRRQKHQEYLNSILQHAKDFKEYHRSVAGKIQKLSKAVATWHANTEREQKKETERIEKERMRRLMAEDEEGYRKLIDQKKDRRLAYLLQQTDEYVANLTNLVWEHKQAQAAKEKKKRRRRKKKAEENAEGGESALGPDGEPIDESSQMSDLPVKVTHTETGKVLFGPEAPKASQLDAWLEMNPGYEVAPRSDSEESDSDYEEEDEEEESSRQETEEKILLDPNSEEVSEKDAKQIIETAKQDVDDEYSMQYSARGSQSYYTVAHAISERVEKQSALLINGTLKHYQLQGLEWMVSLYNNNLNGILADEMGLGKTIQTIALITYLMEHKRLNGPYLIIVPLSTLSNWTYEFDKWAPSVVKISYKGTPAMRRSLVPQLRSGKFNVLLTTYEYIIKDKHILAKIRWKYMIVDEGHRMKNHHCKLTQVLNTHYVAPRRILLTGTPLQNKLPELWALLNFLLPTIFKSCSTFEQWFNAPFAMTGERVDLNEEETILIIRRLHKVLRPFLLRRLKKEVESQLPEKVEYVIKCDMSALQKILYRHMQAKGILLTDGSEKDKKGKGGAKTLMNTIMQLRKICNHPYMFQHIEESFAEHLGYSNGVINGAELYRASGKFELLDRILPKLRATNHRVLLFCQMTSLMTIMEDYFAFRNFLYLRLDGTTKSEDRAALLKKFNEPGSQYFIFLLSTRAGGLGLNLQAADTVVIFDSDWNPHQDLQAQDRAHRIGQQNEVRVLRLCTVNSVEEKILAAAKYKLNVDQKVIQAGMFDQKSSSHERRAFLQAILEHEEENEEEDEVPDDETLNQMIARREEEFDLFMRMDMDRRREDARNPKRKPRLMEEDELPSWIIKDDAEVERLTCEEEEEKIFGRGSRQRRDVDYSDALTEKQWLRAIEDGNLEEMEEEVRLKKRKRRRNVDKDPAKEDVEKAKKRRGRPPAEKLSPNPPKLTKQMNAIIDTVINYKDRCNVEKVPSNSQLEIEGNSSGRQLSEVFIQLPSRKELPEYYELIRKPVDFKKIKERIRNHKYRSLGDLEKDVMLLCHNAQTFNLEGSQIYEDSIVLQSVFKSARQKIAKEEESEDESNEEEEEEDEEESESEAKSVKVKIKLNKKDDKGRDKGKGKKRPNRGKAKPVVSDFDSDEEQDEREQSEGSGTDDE

Row | SMILES | SMARCA2 MSD A549 degradation 24 h: Average Dmax % (SMARCA2 [1]) | DC50 (SMARCA2 [1]) [nM] | SMARCA2 MSD MV411 degradation 24 h: average Dmax % (SMARCA2 [2]) | DC50 (SMARCA2 [2]) [nM] | Selectivity in MV411 (SMARCA2 [2]) | SMARCA4 MSD MV411 degradation 24 h: average Dmax % (SMARCA4) | DC50 (SMARCA4) [nM] | Dmax (SMARCA2 [1]) [%] | Dmax (SMARCA2 [2]) [%] | Dmax (SMARCA4) [%]
1 | C#Cc1ccc([C@H](C)NC(=O)[C@@H]2C[C@@H](O)CN2C(=O)[C@@H](NC(=O)[C@H]2CC3(C2)C[C@H](N2CCC(N4CCC(N5CCN6c7cc(-c8ccccc8O)nnc7NC[C@H]6C5)CC4)CC2)C3)C(C)(C)C)cc1 (single isomer, unassigned) [I-226] | A (A (>90% degradation)) | > 100 | B (B (>70-90% degradation)) | 10 to 100 | B (B (>100-500 fold)) | D (D (<50% degradation)) | > 100 | – | – | –
2 | CC(C)(C)[C@H](NC(=O)[C@H]1CCC2(CC1)C[C@H](N1CCC(c3cnc(N4CCN5c6cc(-c7ccccc7O)nnc6NC[C@H]5C4)nc3)CC1)C2)C(=O)N1C[C@H](O)C[C@H]1C(=O)NCC#Cc1ccc(Cl)cc1 (single isomer, unassigned) [I-101] | – | > 100 | – | > 100 | C (C (10-100 fold)) | – | > 100 | 50 to 70 | < 50 | < 50
3 | C#Cc1ccc([C@H](C)NC(=O)[C@@H]2C[C@@H](O)CN2C(=O)[C@@H](NC(=O)N2CC3(CC(N4CCC(c5cnc(N6CCc7[nH]c8nnc(-c9ccccc9O)cc8c7[C@H]6C)nc5)CC4)C3)C2)C(C)(C)C)cc1 [I-151] | – | 10 to 50 | – | 1 to 10 | C (C (10-100 fold)) | – | > 100 | > 90 | 70 to 90 | 50 to 70
4 | Cc1ncsc1-c1ccc(CNC(=O)[C@@H]2C[C@@H](O)CN2C(=O)C(c2cc(OCCCCN3CCC(c4cnc(N5CCN6c7cc(-c8ccccc8O)nnc7NC[C@H]6C5)nc4)CC3)no2)C(C)C)cc1 (stereo partly drawn) [I-50, (2S,4R)-4-hydroxy-1-(2-(3-(4-(4-(2-((S)-2-(2-hydroxyphenyl)-6a,7,9,10-tetrahydro-5H-pyrazino[1′,2′:4,5]pyrazino[2,3-c]pyridazin-8(6H)-yl)pyrimidin-5-yl)piperidin-1-yl)butoxy)isoxazol-5-yl)-3-methylbutanoyl)-N-(4-(4-methylthiazol-5-yl)benzyl)pyrrolidine-2-carboxamide] | – | < 10 | – | < 1 | D (D (<10 fold)) | – | 1 to 10 | > 90 | > 90 | > 90
5 | Cc1ncsc1-c1ccc(CNC(=O)[C@@H]2C[C@@H](O)CN2C(=O)[C@@H](NC(=O)N2CC3(CC(N4CCC(c5cnc(N6CCc7[nH]c8nnc(-c9ccccc9O)cc8c7[C@H]6C)nc5)CC4)C3)C2)C(C)(C)C)cc1 [I-58, N—((S)-1-((2S,4R)-4-hydroxy-2-((4-(4-methylthiazol-5-yl)benzyl)carbamoyl)pyrrolidin-1-yl)-3,3-dimethyl-1l-oxobutan-2-yl)-6-(4-(2-((R)-3-(2-hydroxyphenyl)-5-methyl-7,8-dihydro-5H-pyrido [3′, 4′: 4,5]pyrrolo [2,3-c]pyridazin-6(9H)-yl)pyrimidin-5-yl)piperidin-1-yl)-2-azaspiro[3.3]heptane-2-carboxamide] | – | 10 to 50 | – | 1 to 10 | B (B (>100-500 fold)) | – | > 100 | > 90 | 70 to 90 | 50 to 70
6 | C#Cc1ccc(CNC(=O)[C@@H]2C[C@@H](O)CN2C(=O)[C@@H](NC(=O)N2CC3(CC(N4CCC(c5cnc(N6CCc7[nH]c8nnc(-c9ccccc9O)cc8c7[C@H]6C)nc5)CC4)C3)C2)C(C)(C)C)c(O)c1 [I-166] | – | < 10 | – | 1 to 10 | C (C (10-100 fold)) | – | 10 to 100 | > 90 | > 90 | > 90
7 | Cc1ncsc1-c1ccc(CNC(=O)[C@@H]2C[C@@H](O)CN2C(=O)[C@@H](NC(=O)[C@H]2CCC3(CC2)C[C@H](N2CCC4(CC2)CN(C(=O)N2CCN5c6cc(-c7ccccc7O)nnc6NC[C@H]5C2)CCO4)C3)C(C)(C)C)cc1 (single isomer, unassigned) [I-133] | – | > 100 | – | 10 to 100 | C (C (10-100 fold)) | – | > 100 | 70 to 90 | 70 to 90 | 50 to 70
8 | C#Cc1ccc(CNC(=O)[C@@H]2C[C@@H](O)CN2C(=O)[C@@H](NC(=O)[C@H]2CCC3(CC2)C[C@H](N2CCC(c4cnc(N5CCN6c7cc(-c8ccccc8O)nnc7NC[C@H]6C5)nc4)CC2)C3)C(C)(C)C)c(F)c1 (single isomer, unassigned) [I-116] | A (A (>90% degradation)) | 10 to 50 | B (B (>70-90% degradation)) | 1 to 10 | B (B (>100-500 fold)) | D (D (<50% degradation)) | > 100 | – | – | –
9 | Cc1ncsc1-c1ccc(CNC(=O)[C@@H]2C[C@@H](O)CN2C(=O)[C@@H](NC(=O)[C@H]2CC3(C2)C[C@H](N2CCN(c4cnc(N5CCc6[nH]c7nnc(-c8ccccc8O)cc7c6[C@H]5C)nc4)CC2)C3)C(C)(C)C)cc1 (single isomer, unassigned) [I-76] | – | 10 to 50 | – | 1 to 10 | C (C (10-100 fold)) | – | > 100 | > 90 | 70 to 90 | 50 to 70
10 | C#Cc1ccc(CNC(=O)[C@@H]2C[C@@H](O)CN2C(=O)C(c2cc(OCCN3CCC(N4CCC(N5CCC(CN6CCN7c8cc(-c9ccccc9O)nnc8NC[C@H]7C6)CC5)CC4)CC3)no2)C(C)C)c(F)c1 (some centres unmarked) [I-296] | – | 50 to 100 | – | 1 to 10 | C (C (10-100 fold)) | – | 10 to 100 | > 90 | > 90 | 70 to 90
11 | C#Cc1ccc(CNC(=O)[C@@H]2C[C@@H](O)CN2C(=O)[C@@H](NC(=O)c2ccc(N3CCC(N4CCC(N5CCN6c7cc(-c8ccccc8O)nnc7NC[C@H]6C5)CC4)CC3)cn2)C(C)(C)C)cc1 [I-292] | – | < 10 | – | 1 to 10 | C (C (10-100 fold)) | – | 10 to 100 | > 90 | > 90 | > 90
12 | C#Cc1ccc(CNC(=O)[C@@H]2C[C@@H](O)CN2C(=O)[C@@H](NC(=O)CCCCCN2CCC(N3CC4(CC(N5CCN6c7cc(-c8ccccc8O)nnc7NC[C@H]6C5)C4)C3)CC2)C(C)(C)C)cc1 [I-251] | – | > 100 | – | 10 to 100 | B (B (>100-500 fold)) | – | > 100 | > 90 | 70 to 90 | < 50
13 | C#Cc1ccc(CNC(=O)[C@@H]2C[C@@H](O)CN2C(=O)[C@@H](NC(=O)[C@H]2CCC3(CC2)C[C@H](N2CCC(c4cnc(N5CCN6c7cc(-c8ccccc8O)nnc7NC[C@H]6C5)nc4)CC2)C3)C(C)(C)C)c(Cl)c1 (single isomer, unassigned) [I-98] | – | 10 to 50 | – | 1 to 10 | A (A (>500 fold)) | – | > 100 | > 90 | 70 to 90 | < 50
14 | Cc1cc(Cl)ccc1C#CCNC(=O)[C@@H]1C[C@@H](O)CN1C(=O)[C@@H](NC(=O)[C@H]1CCC2(CC1)C[C@H](N1CCC(c3cnc(N4CCN5c6cc(-c7ccccc7O)nnc6NC[C@H]5C4)nc3)CC1)C2)C(C)(C)C (single isomer, unassigned) [I-126] | D (D (<50% degradation)) | > 100 | D (D (<50% degradation)) | > 100 | C (C (10-100 fold)) | D (D (<50% degradation)) | > 100 | – | – | –
